18 molecules from PubChem BioAssay (NCI) can be followed below.

Assay in all cases: growth of human tumour cells (NCI), 48 h
Assay [1] deals with HOP-62 NSCLC.
Assay [2] deals with HT29 colon.
Assay [3] deals with MCF7 breast.
For assay [4], the system named is NCI-H23 lung.
For assay [5], the system named is NCI-H460 lung.
Assay [6] concerns NCI/ADR-RES ovarian.
Assay [7] concerns PC-3 prostate.
Assay [8] deals with RPMI-8226 leukemia.
The subject of assay [9] is RXF 393 renal.
The test system of assay [10] is SK-MEL-2 melanoma.

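Following 48 hours of exposure in 96-well plates, responses at five concentrations were used to interpolate endpoints linearly. Abbreviation: GI50, concentration required for 50% inhibition of growth. The concentration for full growth arrest is given as TGI.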 Bounds are passed on as bounds.

Regarding `Cc1[nH]c(-c2cc(N)ccc2Cl)c2c1C(=O)CCCC2`, the GI50 in assay [1] is 2.29 µM; in assay [2], 2.7 µM; in assay [3] it was 2.32 µM; in assay [4], 5.06 µM; in assay [5], 10.3 µM; in assay [6], 4.78 µM. For the same molecule, the GI50 was 3.5 µM in assay [7], 3.63 µM in assay [8], 2.06 µM in assay [9] and 7.65 µM in [10]. Also, the TGI in assay [1] was above 100 µM; in assay [2], above 100 µM; in assay [3], above 100 µM; in [4], 64.6 µM; in [5], above 100 µM; in assay [6], above 100 µM. In addition, the TGI in assay [7] was above 100 µM; in assay [8] it was 44.2 µM; in [9], 6.06 µM; in assay [10], 60.7 µM.

As to `CN1CCN(CCCCCN=c2cc3c(=O)n(CCCCCN4CCN(C)CC4)c(=O)c4c(NCCCCCN5CCN(C)CC5)cc5c(O)n(CCCCCN6CCN(C)CC6)c(=O)c2c5c4-3)CC1`, the GI50 in [1] was 2.45 µM; in assay [2], 1.45 µM; in assay [3], 2.52 µM; in [4], 6.65 µM; in assay [5], 3.06 µM; in [6], above 100 µM. In addition, the GI50 is 3.32 µM in assay [7], 3.02 µM in [8], 24.3 µM in assay [9] and 2.69 µM in assay [10]. The TGI was 12.2 µM in assay [1]; 5.31 µM in assay [2]; 7.41 µM in assay [3]; 46.3 µM in assay [4]; 10.2 µM in assay [5]; above 100 µM in [6]. The TGI is 19.4 µM in [7], 11.3 µM in assay [8], above 100 µM in assay [9] and 7.43 µM in assay [10].

As to `Nc1nc(N)c(CCCCc2ccccc2)c(N)n1`, the TGI in assay [1], in [2], in assay [3], in [4], in assay [5] and in [6] was above 100 µM in each case. The TGI in [7], in [8], in assay [9] and in assay [10] was above 100 µM each time.

In the case of `COc1cc(C(=O)Nc2cc(O)c(CC=C(C)C)c(O)c2)cc2c1O[C@]1(C)CC[C@@H](O)C(C)(C)[C@H]1C2`, the GI50 in assay [1] was 0.46 µM; in assay [2], 1.9 µM; in [3], 0.256 µM; in [4], 5.42 µM; in [5], 0.547 µM; in assay [6] it was 29.8 µM. Further, the GI50 was 0.142 µM in assay [7], 0.0959 µM in [8], 0.0345 µM in [9] and 0.143 µM in assay [10]. The TGI in assay [1] is 8.81 µM; in assay [2], 12.3 µM; in [3], 15.4 µM; in assay [4], 35.9 µM; in [5], 19.1 µM; in [6] it was above 100 µM. Further, the TGI in assay [7] amounted to 37.5 µM; in [8], 0.816 µM; in assay [9] it was 2.89 µM; in assay [10], 8.21 µM.

Turning to `O=C1c2c(Br)sc(Br)c2[C@@H](NC(=O)C(F)(F)F)C1Br` (some centres undefined), the TGI in assay [1] was 28.2 µM; in assay [2], 5.77 µM; in assay [3] it was 15.6 µM; in assay [4] it was 7.14 µM; in assay [5], 31 µM; in [6], 11 µM. The TGI in assay [7] worked out at 15.1 µM; in assay [8], 5.92 µM; in assay [9], 5.22 µM; in assay [10], 27.5 µM.

Regarding `COc1cccc(Oc2ccccc2NC(=O)CNC(=O)c2cccc3ccccc23)c1`, the GI50 in [1] is 0.302 µM; in assay [2] it was 0.11 µM; in [3] it was 0.1 µM; in assay [4], 0.735 µM; in [5] it was 0.298 µM; in [6], 0.238 µM. Besides, the GI50 in [7] was 0.284 µM; in assay [8] it was 0.953 µM; in assay [9], 0.165 µM; in assay [10] it was 0.181 µM. Also, the TGI in [1] was above 25 µM; in [2], 1.04 µM; in assay [3] it was above 25 µM; in [4], above 25 µM; in assay [5], 4.53 µM; in [6], 5.69 µM. The TGI is above 25 µM in [7], 13.7 µM in assay [8], 2.19 µM in assay [9] and above 25 µM in [10].

On to `COc1cc(C(=O)c2cc(C)c3[nH]c4ccc(O)cc4c3c2C)cc(OC)c1OC`, for which the GI50 was 0.0297 µM in assay [1]; 0.0276 µM in [2]; below 0.01 µM in [3]; 0.0335 µM in assay [4]; below 0.0185 µM in assay [5]; below 0.01 µM in [6]. The GI50 is below 0.02 µM in assay [7], 0.0228 µM in assay [8], below 0.01 µM in assay [9] and 0.457 µM in assay [10]. Also, the TGI was above 70.9 µM in assay [1]; above 44.4 µM in [3]; above 40 µM in assay [4]; above 100 µM in [5]; above 100 µM in assay [7]; above 100 µM in assay [8]. Also, the TGI in [9] was 3.11 µM; in assay [10], above 100 µM.

Take `Oc1cc(-n2cccn2)c(O)cc1-n1cccn1`: the TGI in assay [1] is above 76.1 µM; in assay [2] it was 56.2 µM; in assay [3], 55.1 µM; in assay [4], 68.4 µM; in assay [5], above 100 µM; in assay [6], above 100 µM. In addition, the TGI is 44.8 µM in assay [7], 72.1 µM in assay [8], 37.8 µM in assay [9] and above 100 µM in assay [10].

As to `O=C(O)c1ccccc1NC(=S)c1ccccc1`, the TGI in assay [1], in assay [2], in assay [3], in assay [4], in assay [5] and in [6] was above 100 µM each time. Also, the TGI in assay [7] is above 100 µM; in assay [8], 75.8 µM; in [9], above 100 µM.

Regarding `CC1c2ccccc2CCN1c1ccc(CO)c(Cl)c1` (centres undefined), the GI50 in assay [1] was 1.67 µM; in assay [2] it was 0.383 µM; in [3] it was 0.0565 µM; in assay [4] it was 21.8 µM; in assay [5], 0.0864 µM; in assay [6], 13.1 µM. Besides, the GI50 is 19.6 µM in assay [7], 1.94 µM in [8] and 1.2 µM in assay [9]. The TGI in assay [1] was 25.3 µM; in [2], 25.2 µM; in [3], 23.2 µM; in assay [4] it was above 72.3 µM; in [5], 3.3 µM; in [6], 50.5 µM. Moreover, the TGI was above 83.5 µM in [7], 47.5 µM in assay [8] and 23.8 µM in assay [9].

Turning to `COc1ccc(C(=O)/C=C/c2ccc(OCC#N)cc2)cc1`, the TGI is above 100 µM in [1]; above 100 µM in assay [2]; 36.1 µM in assay [3]; 49.6 µM in [4]; 81.1 µM in assay [5]; 50 µM in assay [6]. For the same molecule, the TGI in assay [7] is above 100 µM; in assay [9], 30.7 µM.

For the molecule `COc1cc2c(cc1F)C(c1ccccc1Cl)=Nc1c(n[nH]c1C)N2`, the GI50 in assay [1] is 1.31 µM; in assay [2] it was 0.587 µM; in [3], 1.03 µM; in assay [4], 3.79 µM; in [5] it was 0.498 µM; in assay [6] it was 0.465 µM. Also, the GI50 in [7] was 12.3 µM; in assay [9] it was 0.242 µM; in assay [10], 1.08 µM. Further, the TGI in assay [1] was found to be 19.1 µM; in [2], 8.83 µM; in [3], 20.7 µM; in [4], 21 µM; in assay [5] it was 26.5 µM; in assay [6], 29.5 µM. For the same molecule, the TGI was above 50.1 µM in assay [7], 1.46 µM in [9] and 17.3 µM in [10].

Regarding `CC(C)C[C@H](NC(=O)CCn1ccc2ccccc2c1=O)B(O)O`, the GI50 in assay [1] is 4.51 µM; in assay [2], 3.68 µM; in [3], 4.35 µM; in [4] it was 25.4 µM; in assay [5], 13 µM; in assay [6] it was 67.1 µM. Moreover, the GI50 in assay [7] is 5.77 µM; in assay [8] it was 1.06 µM; in assay [10], 3.58 µM. The TGI in [1] was 22.1 µM; in [2] it was 48.7 µM; in assay [3], above 100 µM; in assay [4] it was above 100 µM; in assay [5], 56.2 µM; in [6], above 100 µM. The TGI in assay [7] was above 100 µM; in assay [8], 7.07 µM; in [10], 32.5 µM.

With `Cc1ccncc1C(N)=O`, the GI50 in [1], in assay [2], in assay [3], in assay [4], in assay [5] and in [6] was above 100 µM throughout. Moreover, the GI50 in assay [7], in assay [8] and in assay [9] was above 100 µM in each case. In addition, the TGI in assay [1], in assay [2], in [3], in assay [4], in assay [5] and in assay [6] was above 100 µM each time. In addition, the TGI in assay [7], in assay [8] and in assay [9] was above 100 µM throughout.

With `COc1cc(-c2nn(-c3cccc(NC(=O)CCN4CCN(Cc5ccccc5)CC4)c3)cc2-c2ccncc2)ccc1Cl`, the GI50 was 1.38 µM in [1]; 0.314 µM in assay [2]; 0.386 µM in assay [3]; 1.73 µM in assay [4]; 0.38 µM in [5]; 0.44 µM in [6]. In addition, the results for the GI50 in assay [7], in assay [9] and in assay [10] were 0.709 µM, 0.705 µM and 1.39 µM, respectively. In addition, the TGI in assay [1] stood at 12.4 µM; in assay [2] it was 1.55 µM; in assay [3], 3.27 µM; in [4], 9.26 µM; in [5] it was 1.46 µM; in assay [6], 2.28 µM. Also, the TGI was determined as 11.6 µM in [7], 2.28 µM in [9] and 4.14 µM in assay [10].

Regarding `NNc1nnc(-c2nnc(NN)o2)o1`, the TGI in assay [1], in assay [2], in assay [3], in assay [4], in assay [5] and in assay [6] was above 10 µM each time. For the same molecule, the TGI in assay [7], in assay [8] and in [9] was above 10 µM throughout.

In the case of `Nc1n[nH]c2ccc([C@@H]3Nc4cc5c(cc4[C@H]4C6CCC(C6)[C@@H]34)C(=O)NC5)cc12` (some centres undefined), the GI50 in assay [1] is 0.513 µM; in assay [2], 0.393 µM; in assay [3], 0.18 µM; in [4], 0.431 µM; in [5], 0.424 µM; in [6], 2.69 µM. Moreover, the GI50 is 0.471 µM in assay [7], 0.273 µM in assay [9] and 15 µM in assay [10]. For the same molecule, the TGI in assay [1], in assay [2], in assay [3], in assay [4], in assay [5] and in assay [6] was above 100 µM each time. Moreover, the TGI in assay [7] and in [10] was above 100 µM throughout.

Take `C/C(=N\O)c1cccc(Nc2cc(-n3ccnc3)c3ccccc3n2)c1`: the GI50 in [1] was 16.6 µM; in assay [2] it was 14.7 µM; in assay [3], above 100 µM; in assay [4], 16.7 µM; in assay [5], above 100 µM; in [6], 17.2 µM. The GI50 in assay [7] was 24.8 µM; in assay [8], 21.2 µM; in assay [10], 16.4 µM. Besides, the TGI was 31.3 µM in [1]; 49.4 µM in assay [2]; above 100 µM in assay [3]; 33.6 µM in [4]; above 100 µM in [5]; 59.2 µM in assay [6]. The TGI was 76.6 µM in assay [7], above 100 µM in assay [8] and 31.6 µM in [10].
